Laboratory results reported in patent US11154529B2, “Phosphaplatin liquid formulations” (Phosplatin Therapeutics Inc., priority 2016, dated 2021).

Assay: Ready-to-use formulation stability at 2-8° C., 5 mg/mL (R,R)-pyrodach-2 in 10 mM Bicarbonate Buffer at pH 8.6, 10 mL vials
Assay type: physicochemical

O=P1(O)OP(=O)(O)[O][Pt]2([NH][C@@H]3CCCC[C@H]3[NH]2)[O]1 (stereo partly drawn) [(R,R)-pyrodach-2, (R,R)-trans-1,2-cyclohexanediamine-(dihydrogenpyrophosphato)platinum(II)]
Potency (Assay) (1 month): 99.1%
Purity (% Area) (1 month): 97.85%
Unknown Impurities RRT~0.29 (1 month): 0.14%
Unknown Impurities RRT~0.35 (1 month): ND (ND = Not Detected, or <0.05%)
Unknown Impurities RRT~0.41 (1 month): 0.05%
Unknown Impurities RRT~0.49 (1 month): 0.55%
Unknown Impurities RRT~0.59 (1 month): 0.08%
Unknown Impurities RRT~0.73 (1 month): 1.14%
Unknown Impurities RRT~1.51 (1 month): ND (ND = Not Detected, or <0.05%)
Unknown Impurities RRT~2.82 (1 month): ND (ND = Not Detected, or <0.05%)
Unknown Impurities RRT~3.44 (1 month): ND (ND = Not Detected, or <0.05%)
pH (1 month): 8.73
Potency (Assay) (1 week): 101.9%
Purity (% Area) (1 week): 98.02%
Unknown Impurities RRT~0.29 (1 week): 0.10%
Unknown Impurities RRT~0.35 (1 week): ND (ND = Not Detected, or <0.05%)
Unknown Impurities RRT~0.41 (1 week): ND (ND = Not Detected, or <0.05%)
Unknown Impurities RRT~0.49 (1 week): 0.60%
Unknown Impurities RRT~0.59 (1 week): ND (ND = Not Detected, or <0.05%)
Unknown Impurities RRT~0.73 (1 week): 1.11%
Unknown Impurities RRT~1.51 (1 week): ND (ND = Not Detected, or <0.05%)
Unknown Impurities RRT~2.82 (1 week): ND (ND = Not Detected, or <0.05%)
Unknown Impurities RRT~3.44 (1 week): ND (ND = Not Detected, or <0.05%)
pH (1 week): 8.57
Potency (Assay) (2 month): 102.4%
Purity (% Area) (2 month): 97.58%
Unknown Impurities RRT~0.29 (2 month): 0.21%
Unknown Impurities RRT~0.35 (2 month): ND (ND = Not Detected, or <0.05%)
Unknown Impurities RRT~0.41 (2 month): 0.11%
Unknown Impurities RRT~0.49 (2 month): 0.62%
Unknown Impurities RRT~0.59 (2 month): 0.15%
Unknown Impurities RRT~0.73 (2 month): 1.03%
Unknown Impurities RRT~1.51 (2 month): ND (ND = Not Detected, or <0.05%)
Unknown Impurities RRT~2.82 (2 month): ND (ND = Not Detected, or <0.05%)
Unknown Impurities RRT~3.44 (2 month): 0.06%
pH (2 month): 8.76
Potency (Assay) (2 week): 100.5%
Purity (% Area) (2 week): 97.99%
Unknown Impurities RRT~0.29 (2 week): 0.12%
Unknown Impurities RRT~0.35 (2 week): ND (ND = Not Detected, or <0.05%)
Unknown Impurities RRT~0.41 (2 week): ND (ND = Not Detected, or <0.05%)
Unknown Impurities RRT~0.49 (2 week): 0.63%
Unknown Impurities RRT~0.59 (2 week): 0.06%
Unknown Impurities RRT~0.73 (2 week): 1.14%
Unknown Impurities RRT~1.51 (2 week): ND (ND = Not Detected, or <0.05%)
Unknown Impurities RRT~2.82 (2 week): ND (ND = Not Detected, or <0.05%)
Unknown Impurities RRT~3.44 (2 week): ND (ND = Not Detected, or <0.05%)
pH (2 week): 8.65
Potency (Assay) (3 month): 102.3%
Purity (% Area) (3 month): 97.76%
Unknown Impurities RRT~0.29 (3 month): 0.29%
Unknown Impurities RRT~0.35 (3 month): ND (ND = Not Detected, or <0.05%)
Unknown Impurities RRT~0.41 (3 month): 0.13%
Unknown Impurities RRT~0.49 (3 month): 0.53%
Unknown Impurities RRT~0.59 (3 month): 0.15%
Unknown Impurities RRT~0.73 (3 month): 0.89%
Unknown Impurities RRT~1.51 (3 month): 0.06%
Unknown Impurities RRT~2.82 (3 month): 0.05%
Unknown Impurities RRT~3.44 (3 month): ND (ND = Not Detected, or <0.05%)
pH (3 month): 8.95
Potency (Assay) (3 week): 100.0%
Purity (% Area) (3 week): 97.91%
Unknown Impurities RRT~0.29 (3 week): 0.14%
Unknown Impurities RRT~0.35 (3 week): ND (ND = Not Detected, or <0.05%)
Unknown Impurities RRT~0.41 (3 week): ND (ND = Not Detected, or <0.05%)
Unknown Impurities RRT~0.49 (3 week): 0.56%
Unknown Impurities RRT~0.59 (3 week): 0.07%
Unknown Impurities RRT~0.73 (3 week): 1.11%
Unknown Impurities RRT~1.51 (3 week): ND (ND = Not Detected, or <0.05%)
Unknown Impurities RRT~2.82 (3 week): ND (ND = Not Detected, or <0.05%)
Unknown Impurities RRT~3.44 (3 week): ND (ND = Not Detected, or <0.05%)
pH (3 week): 8.67
Potency (Assay) (4 month): 103.5%
Purity (% Area) (4 month): 98.07%
Unknown Impurities RRT~0.29 (4 month): 0.15%
Unknown Impurities RRT~0.35 (4 month): ND (ND = Not Detected, or <0.05%)
Unknown Impurities RRT~0.41 (4 month): 0.16%
Unknown Impurities RRT~0.49 (4 month): 0.68%
Unknown Impurities RRT~0.59 (4 month): 0.09%
Unknown Impurities RRT~0.73 (4 month): 0.72%
Unknown Impurities RRT~1.51 (4 month): 0.05%
Unknown Impurities RRT~2.82 (4 month): 0.05%
Unknown Impurities RRT~3.44 (4 month): ND (ND = Not Detected, or <0.05%)
pH (4 month): 8.83
Potency (Assay) (6 month): 100.4%
Purity (% Area) (6 month): 97.56%
Unknown Impurities RRT~0.29 (6 month): 0.23%
Unknown Impurities RRT~0.35 (6 month): ND (ND = Not Detected, or <0.05%)
Unknown Impurities RRT~0.41 (6 month): 0.23%
Unknown Impurities RRT~0.49 (6 month): 0.65%
Unknown Impurities RRT~0.59 (6 month): 0.21%
Unknown Impurities RRT~0.73 (6 month): 0.90%
Unknown Impurities RRT~1.51 (6 month): ND (ND = Not Detected, or <0.05%)
Unknown Impurities RRT~2.82 (6 month): ND (ND = Not Detected, or <0.05%)
Unknown Impurities RRT~3.44 (6 month): 0.09%
pH (6 month): 8.84
Potency (Assay) (9 month): 102.2%
Purity (% Area) (9 month): 97.73%
Unknown Impurities RRT~0.29 (9 month): 0.15%
Unknown Impurities RRT~0.35 (9 month): ND (ND = Not Detected, or <0.05%)
Unknown Impurities RRT~0.41 (9 month): 0.33%
Unknown Impurities RRT~0.49 (9 month): 0.58%
Unknown Impurities RRT~0.59 (9 month): 0.24%
Unknown Impurities RRT~0.73 (9 month): 0.43%
Unknown Impurities RRT~1.51 (9 month): 0.05%
Unknown Impurities RRT~2.82 (9 month): 0.13%
Unknown Impurities RRT~3.44 (9 month): 0.16%
pH (9 month): 9.07
Potency (Assay) (12 month): 100.3%
Purity (% Area) (12 month): 96.64%
Unknown Impurities RRT~0.29 (12 month): 0.13%
Unknown Impurities RRT~0.35 (12 month): 0.05%
Unknown Impurities RRT~0.41 (12 month): 0.47%
Unknown Impurities RRT~0.49 (12 month): 0.64%
Unknown Impurities RRT~0.59 (12 month): 0.27%
Unknown Impurities RRT~0.73 (12 month): 0.98%
Unknown Impurities RRT~1.51 (12 month): ND (ND = Not Detected, or <0.05%)
Unknown Impurities RRT~2.82 (12 month): 0.19%
Unknown Impurities RRT~3.44 (12 month): 0.28%
pH (12 month): 8.97
Potency (Assay) (Initial): 100.3%
Purity (% Area) (Initial): 98.04%
Unknown Impurities RRT~0.29 (Initial): 0.11%
Unknown Impurities RRT~0.35 (Initial): ND (ND = Not Detected, or <0.05%)
Unknown Impurities RRT~0.41 (Initial): ND (ND = Not Detected, or <0.05%)
Unknown Impurities RRT~0.49 (Initial): 0.62%
Unknown Impurities RRT~0.59 (Initial): ND (ND = Not Detected, or <0.05%)
Unknown Impurities RRT~0.73 (Initial): 1.05%
Unknown Impurities RRT~1.51 (Initial): ND (ND = Not Detected, or <0.05%)
Unknown Impurities RRT~2.82 (Initial): ND (ND = Not Detected, or <0.05%)
Unknown Impurities RRT~3.44 (Initial): ND (ND = Not Detected, or <0.05%)
pH (Initial): 8.60
